According to ChEMBL document CHEMBL4507307 (2021):

What was measured:
[1] = molecular target: Tyrosine-protein kinase JAK1 (Homo sapiens) (UniProt P23458); assay: JAK1 Kinase activity screen; details: Compound concentration 0.1 uM
[2] = molecular target: Mitogen-activated protein kinase 9 (Homo sapiens) (UniProt P45984); assay: MAPK9 (JNK2) Kinase activity screen
[3] = molecular target: Inhibitor of nuclear factor kappa-B kinase subunit beta (Homo sapiens) (UniProt O14920); assay: IKBKB (IKK beta) Kinase activity screen
[4] = molecular target: Angiopoietin-1 receptor (Homo sapiens) (UniProt Q02763); assay: TEK (Tie2) Kinase activity screen
[5] = molecular target: Dual specificity mitogen-activated protein kinase kinase 1 (Homo sapiens) (UniProt Q02750); assay: MAP2K1 (MEK1) Kinase activity screen
[6] = molecular target: Cyclin-dependent kinase 5/CDK5 activator 1 (Homo sapiens) (UniProt Q00535+Q15078); assay: CDK5/p25 Kinase activity screen; type: protein-complex assay
[7] = molecular target: Serine/threonine-protein kinase pim-1 (Homo sapiens) (UniProt P11309); assay: PIM1 Kinase activity screen
[8] = molecular target: MAP kinase-activated protein kinase 2 (Homo sapiens) (UniProt P49137); assay: MAPKAPK2 Kinase activity screen
[9] = molecular target: Protein kinase C theta type (Homo sapiens) (UniProt Q04759); assay: PRKCQ (PKC theta) Kinase activity screen
[10] = molecular target: cAMP-dependent protein kinase catalytic subunit alpha (Homo sapiens) (UniProt P17612); assay: PRKACA (PKA) Kinase activity screen
[11] = molecular target: Dual specificity tyrosine-phosphorylation-regulated kinase 1A (Homo sapiens, UniProt Q13627); assay: DYRK1A Kinase activity screen
[12] = molecular target: AMP-activated protein kinase (AMPK) alpha-1/beta-1/gamma-1 (Homo sapiens) (UniProt P54619+Q9Y478+Q13131); assay: AMPK A1/B1/G1 Kinase activity screen; type: protein-complex assay
[13] = molecular target: Serine/threonine-protein kinase Chk1 (Homo sapiens) (UniProt O14757); assay: CHEK1 (CHK1) Kinase activity screen
[14] = molecular target: Ephrin type-A receptor 2 (Homo sapiens) (UniProt P29317); assay: EPHA2 Kinase activity screen
[15] = molecular target: Homeodomain-interacting protein kinase 1 (Homo sapiens) (UniProt Q86Z02); assay: HIPK1 (Myak) Kinase activity screen
[16] = molecular target: Dual specificity tyrosine-phosphorylation-regulated kinase 4 (Homo sapiens) (UniProt Q9NR20); assay: DYRK4 Kinase activity screen
[17] = molecular target: Mitogen-activated protein kinase 3 (Homo sapiens) (UniProt P27361); assay: MAPK3 (ERK1) Kinase activity screen
[18] = molecular target: Mitogen-activated protein kinase 11 (Homo sapiens) (UniProt Q15759); assay: MAPK11 (p38 beta) Kinase activity screen
[19] = molecular target: Tyrosine-protein kinase ABL1 (Homo sapiens) (UniProt P00519); assay: ABL1 Kinase activity screen
[20] = molecular target: RAC-alpha serine/threonine-protein kinase (Homo sapiens) (UniProt P31749); assay: AKT1 (PKB alpha) Kinase activity screen; details: Compound concentration 0.1 uM
[21] = molecular target: Proto-oncogene tyrosine-protein kinase Src (Homo sapiens) (UniProt P12931); assay: SRC Kinase activity screen
[22] = molecular target: Casein kinase I isoform alpha (Homo sapiens) (UniProt P48729); assay: CSNK1A1 (CK1 alpha 1) Kinase activity screen
[23] = molecular target: T1, Dual specificity protein kinase CLK2 (Homo sapiens, UniProt P49760); assay: CLK2 Kinase activity screen
[24] = molecular target: Fibroblast growth factor receptor 1 (Homo sapiens) (UniProt P11362); assay: FGFR1 Kinase activity screen
[25] = molecular target: Ribosomal protein S6 kinase beta-1 (Homo sapiens) (UniProt P23443); assay: RPS6KB1 (p70S6K) Kinase activity screen
[26] = molecular target: Proto-oncogene tyrosine-protein kinase receptor Ret (Homo sapiens) (UniProt P07949); assay: RET Kinase activity screen
[27] = molecular target: PI3-kinase p110-alpha/p85-alpha (Homo sapiens) (UniProt P27986+P42336); assay: PIK3CA/PIK3R1 (p110 alpha/p85 alpha) Kinase activity screen; type: protein-complex assay
[28] = molecular target: Muscarinic acetylcholine receptor M1 (Homo sapiens, UniProt P11229); assay: GPCRScan assay: inhibition of M1; parameters: radioligand conc. used [nm] 0.3 – 1.2, parental cells stable CHO
[29] = molecular target: 5-hydroxytryptamine receptor 2C (Homo sapiens, UniProt P28335); assay: GPCRScan assay: inhibition of 5-HT2C; parameters: radioligand conc. used [nm] 1.0 – 2.5, parental cells HEK T
[30] = molecular target: T1, Dual specificity protein kinase CLK2; assay: NanoBRET (SGC Frankfurt) (CLK2)
[31] = molecular target: 5-hydroxytryptamine receptor 1B (Homo sapiens, UniProt P28222); assay: GPCRScan assay: inhibition of 5-HT1B; parameters: radioligand conc. used [nm] 0.6 – 1.5, parental cells stable HEK
[32] = molecular target: Alpha-2B adrenergic receptor (Homo sapiens, UniProt P18089); assay: GPCRScan assay: inhibition of Alpha2B; parameters: radioligand conc. used [nm] 1.5 – 2.0, parental cells HEKT
[33] = molecular target: Alpha-2A adrenergic receptor (Homo sapiens, UniProt P08913); assay: GPCRScan assay: inhibition of Alpha2A; parameters: radioligand conc. used [nm] 1.0 – 3.0, parental cells stable MDCK
[34] = molecular target: 5-hydroxytryptamine receptor 1A (Homo sapiens, UniProt P08908); assay: GPCRScan assay: inhibition of 5-HT1A; parameters: radioligand conc. used [nm] 0.5 – 1.0, parental cells stable CHO
[35] = organism: Rattus norvegicus; details: Compound concentration 10.0 uM
[36] = molecular target: 5-hydroxytryptamine receptor 5A (Homo sapiens, UniProt P47898); assay: GPCRScan assay: inhibition of 5-HT5A; parameters: radioligand conc. used [nm] 2.0 - 3.3, parental cells Flp-In CHO
[37] = molecular target: Alpha-1D adrenergic receptor (Homo sapiens) (UniProt P25100); details: Compound concentration 10.0 uM
[38] = molecular target: Sigma intracellular receptor 2 (Homo sapiens, UniProt Q5BJF2); assay: GPCRScan assay: inhibition of Sigma 2; parameters: radioligand conc. used [nm] 5.0, parental cells HEKT
[39] = molecular target: D(3) dopamine receptor (Homo sapiens, UniProt P35462); assay: GPCRScan assay: inhibition of D3; parameters: radioligand conc. used [nm] 0.5 – 1.8, parental cells HEKT
[40] = molecular target: Muscarinic acetylcholine receptor M1 (Homo sapiens) (UniProt P11229); details: Compound concentration 10.0 uM
[41] = molecular target: Mu-type opioid receptor (Homo sapiens, UniProt P35372); assay: GPCRScan assay: inhibition of MOR; parameters: radioligand conc. used [nm] 1.0 – 2.0, parental cells stable HEK
[42] = Compound concentration 0.123 uM

Chain of MAP kinase-activated protein kinase 2 (Homo sapiens) (P49137 whole entry, looked up): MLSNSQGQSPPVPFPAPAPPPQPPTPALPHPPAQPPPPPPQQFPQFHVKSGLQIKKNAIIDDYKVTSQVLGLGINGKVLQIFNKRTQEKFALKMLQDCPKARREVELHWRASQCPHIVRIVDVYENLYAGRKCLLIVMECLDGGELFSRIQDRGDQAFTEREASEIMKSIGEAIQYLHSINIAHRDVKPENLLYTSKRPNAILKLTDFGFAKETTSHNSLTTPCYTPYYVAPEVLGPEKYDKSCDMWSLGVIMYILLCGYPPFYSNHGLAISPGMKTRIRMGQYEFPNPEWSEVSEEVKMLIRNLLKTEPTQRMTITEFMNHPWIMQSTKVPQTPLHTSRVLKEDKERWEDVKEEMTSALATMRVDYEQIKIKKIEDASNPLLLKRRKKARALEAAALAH
Chain of Homeodomain-interacting protein kinase 1 (Homo sapiens) (Q86Z02 whole entry, looked up): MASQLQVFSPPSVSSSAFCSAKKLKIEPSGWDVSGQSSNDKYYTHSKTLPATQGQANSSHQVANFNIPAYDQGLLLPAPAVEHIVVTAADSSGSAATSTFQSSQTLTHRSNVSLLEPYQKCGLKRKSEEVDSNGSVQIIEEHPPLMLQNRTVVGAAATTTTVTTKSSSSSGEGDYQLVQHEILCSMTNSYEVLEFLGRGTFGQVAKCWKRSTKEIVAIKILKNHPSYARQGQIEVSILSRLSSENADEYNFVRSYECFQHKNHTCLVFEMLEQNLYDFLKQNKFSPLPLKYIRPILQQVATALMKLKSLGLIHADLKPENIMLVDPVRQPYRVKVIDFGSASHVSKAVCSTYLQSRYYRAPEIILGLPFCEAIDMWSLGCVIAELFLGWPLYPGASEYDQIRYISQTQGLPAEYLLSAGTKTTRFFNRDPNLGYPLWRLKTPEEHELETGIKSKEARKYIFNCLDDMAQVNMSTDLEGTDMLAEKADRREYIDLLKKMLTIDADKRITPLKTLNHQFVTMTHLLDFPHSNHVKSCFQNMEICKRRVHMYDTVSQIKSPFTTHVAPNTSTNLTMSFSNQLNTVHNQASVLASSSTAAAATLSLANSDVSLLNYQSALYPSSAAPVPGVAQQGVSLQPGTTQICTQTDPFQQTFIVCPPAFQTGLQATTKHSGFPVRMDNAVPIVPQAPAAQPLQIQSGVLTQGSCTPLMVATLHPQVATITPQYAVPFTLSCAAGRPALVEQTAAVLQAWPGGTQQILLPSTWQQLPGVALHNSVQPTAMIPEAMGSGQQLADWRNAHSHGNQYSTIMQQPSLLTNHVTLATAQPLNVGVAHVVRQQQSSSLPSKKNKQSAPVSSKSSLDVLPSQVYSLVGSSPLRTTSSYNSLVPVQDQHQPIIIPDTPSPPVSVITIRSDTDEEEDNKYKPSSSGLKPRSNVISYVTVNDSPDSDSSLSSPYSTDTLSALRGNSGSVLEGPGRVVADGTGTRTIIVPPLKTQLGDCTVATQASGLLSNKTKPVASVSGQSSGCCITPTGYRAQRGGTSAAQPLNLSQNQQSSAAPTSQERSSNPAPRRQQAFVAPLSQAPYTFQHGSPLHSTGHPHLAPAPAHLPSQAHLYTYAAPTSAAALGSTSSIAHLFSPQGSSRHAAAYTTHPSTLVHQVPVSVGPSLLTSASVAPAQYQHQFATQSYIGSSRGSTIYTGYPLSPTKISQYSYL
Chain of Proto-oncogene tyrosine-protein kinase receptor Ret (Homo sapiens) (P07949 whole entry): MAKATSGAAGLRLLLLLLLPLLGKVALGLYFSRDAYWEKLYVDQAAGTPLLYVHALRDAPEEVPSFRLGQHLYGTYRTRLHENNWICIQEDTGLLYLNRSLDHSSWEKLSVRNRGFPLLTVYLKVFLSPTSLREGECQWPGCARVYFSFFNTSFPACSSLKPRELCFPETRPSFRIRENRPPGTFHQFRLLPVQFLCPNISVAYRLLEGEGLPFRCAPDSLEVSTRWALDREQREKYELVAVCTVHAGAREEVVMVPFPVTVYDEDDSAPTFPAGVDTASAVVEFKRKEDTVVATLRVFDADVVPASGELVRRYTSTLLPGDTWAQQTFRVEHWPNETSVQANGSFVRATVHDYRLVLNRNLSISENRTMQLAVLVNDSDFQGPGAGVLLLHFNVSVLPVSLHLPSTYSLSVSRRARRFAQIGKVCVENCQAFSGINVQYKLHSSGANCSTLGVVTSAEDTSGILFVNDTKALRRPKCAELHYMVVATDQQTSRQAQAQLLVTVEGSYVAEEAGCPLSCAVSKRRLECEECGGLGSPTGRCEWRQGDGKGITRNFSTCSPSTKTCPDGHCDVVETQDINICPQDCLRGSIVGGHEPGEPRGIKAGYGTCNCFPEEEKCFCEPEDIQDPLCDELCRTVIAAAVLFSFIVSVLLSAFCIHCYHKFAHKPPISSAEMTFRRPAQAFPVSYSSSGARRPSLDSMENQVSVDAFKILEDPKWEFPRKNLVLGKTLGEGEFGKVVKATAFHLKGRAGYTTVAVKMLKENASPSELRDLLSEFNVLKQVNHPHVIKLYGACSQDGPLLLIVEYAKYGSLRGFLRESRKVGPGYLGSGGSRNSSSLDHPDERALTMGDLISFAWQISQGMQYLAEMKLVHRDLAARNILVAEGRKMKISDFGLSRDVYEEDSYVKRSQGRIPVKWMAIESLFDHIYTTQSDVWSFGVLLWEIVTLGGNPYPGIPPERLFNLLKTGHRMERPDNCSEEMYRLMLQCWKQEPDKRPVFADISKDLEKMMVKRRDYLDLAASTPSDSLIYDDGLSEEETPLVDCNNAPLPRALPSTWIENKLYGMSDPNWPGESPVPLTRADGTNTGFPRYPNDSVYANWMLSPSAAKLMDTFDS
Chain of Angiopoietin-1 receptor (Homo sapiens) (Q02763 whole entry): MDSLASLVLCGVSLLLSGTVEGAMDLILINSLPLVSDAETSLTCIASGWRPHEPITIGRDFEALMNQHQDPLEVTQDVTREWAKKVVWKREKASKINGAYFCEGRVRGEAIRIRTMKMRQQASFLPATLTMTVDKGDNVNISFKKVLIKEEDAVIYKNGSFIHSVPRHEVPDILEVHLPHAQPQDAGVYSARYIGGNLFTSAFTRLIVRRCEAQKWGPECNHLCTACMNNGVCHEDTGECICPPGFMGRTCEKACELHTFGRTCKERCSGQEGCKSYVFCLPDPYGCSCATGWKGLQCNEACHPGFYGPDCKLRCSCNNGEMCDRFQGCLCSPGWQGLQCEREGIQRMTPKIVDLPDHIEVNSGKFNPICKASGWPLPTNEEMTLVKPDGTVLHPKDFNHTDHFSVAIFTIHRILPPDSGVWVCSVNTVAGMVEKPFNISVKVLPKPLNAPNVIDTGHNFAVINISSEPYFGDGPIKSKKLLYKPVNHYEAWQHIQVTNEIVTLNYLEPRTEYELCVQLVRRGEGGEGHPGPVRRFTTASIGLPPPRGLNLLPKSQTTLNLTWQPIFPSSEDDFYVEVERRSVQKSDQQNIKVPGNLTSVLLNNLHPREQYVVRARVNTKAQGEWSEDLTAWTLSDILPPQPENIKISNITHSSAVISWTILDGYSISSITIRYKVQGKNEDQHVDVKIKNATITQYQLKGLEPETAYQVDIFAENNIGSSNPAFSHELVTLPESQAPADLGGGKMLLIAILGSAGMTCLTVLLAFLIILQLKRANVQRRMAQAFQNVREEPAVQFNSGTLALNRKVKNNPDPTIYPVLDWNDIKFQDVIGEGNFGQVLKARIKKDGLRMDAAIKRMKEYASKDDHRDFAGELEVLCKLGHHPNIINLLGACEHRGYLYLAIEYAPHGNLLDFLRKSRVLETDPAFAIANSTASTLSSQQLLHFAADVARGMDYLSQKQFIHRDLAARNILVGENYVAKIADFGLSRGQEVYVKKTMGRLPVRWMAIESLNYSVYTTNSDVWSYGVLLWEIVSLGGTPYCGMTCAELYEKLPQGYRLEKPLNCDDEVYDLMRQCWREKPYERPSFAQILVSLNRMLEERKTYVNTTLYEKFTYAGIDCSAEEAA
Chain of Alpha-2B adrenergic receptor (P18089 whole entry): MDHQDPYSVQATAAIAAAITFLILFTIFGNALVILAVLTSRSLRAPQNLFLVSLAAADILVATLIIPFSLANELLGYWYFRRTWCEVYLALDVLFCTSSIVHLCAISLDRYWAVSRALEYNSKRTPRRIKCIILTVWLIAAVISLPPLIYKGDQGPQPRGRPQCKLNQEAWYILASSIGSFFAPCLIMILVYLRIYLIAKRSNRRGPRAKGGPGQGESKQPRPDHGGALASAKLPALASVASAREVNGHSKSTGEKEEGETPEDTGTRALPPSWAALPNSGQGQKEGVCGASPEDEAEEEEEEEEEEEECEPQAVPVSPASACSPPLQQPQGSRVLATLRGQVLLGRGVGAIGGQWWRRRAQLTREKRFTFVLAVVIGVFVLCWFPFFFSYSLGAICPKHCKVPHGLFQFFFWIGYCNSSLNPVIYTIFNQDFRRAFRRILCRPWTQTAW
Chain of Casein kinase I isoform alpha (Homo sapiens) (P48729 2-337 limits assumed): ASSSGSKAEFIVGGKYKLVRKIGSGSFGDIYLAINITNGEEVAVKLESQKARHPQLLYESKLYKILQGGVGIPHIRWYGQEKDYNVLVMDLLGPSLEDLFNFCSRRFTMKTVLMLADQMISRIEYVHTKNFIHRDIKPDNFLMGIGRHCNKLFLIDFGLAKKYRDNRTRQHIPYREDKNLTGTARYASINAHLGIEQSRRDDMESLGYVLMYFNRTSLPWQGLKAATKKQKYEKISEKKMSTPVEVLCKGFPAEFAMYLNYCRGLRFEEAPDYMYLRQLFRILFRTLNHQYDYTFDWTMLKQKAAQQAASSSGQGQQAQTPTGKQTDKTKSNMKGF
Chain of Mitogen-activated protein kinase 9 (Homo sapiens) (P45984 whole entry, looked up): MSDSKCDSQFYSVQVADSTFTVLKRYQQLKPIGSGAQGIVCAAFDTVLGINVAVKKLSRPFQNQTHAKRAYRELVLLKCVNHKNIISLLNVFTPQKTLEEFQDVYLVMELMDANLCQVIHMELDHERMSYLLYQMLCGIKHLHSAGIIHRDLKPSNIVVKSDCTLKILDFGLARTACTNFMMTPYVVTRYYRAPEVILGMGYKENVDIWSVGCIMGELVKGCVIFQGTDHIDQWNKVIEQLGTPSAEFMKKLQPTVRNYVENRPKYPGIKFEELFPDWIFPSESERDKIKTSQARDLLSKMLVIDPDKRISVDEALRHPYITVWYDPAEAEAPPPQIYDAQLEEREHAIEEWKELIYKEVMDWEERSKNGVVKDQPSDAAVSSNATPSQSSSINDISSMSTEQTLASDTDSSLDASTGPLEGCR

CN1CCN(C(=O)C(C)(C)c2ccc(C(=O)Nc3cn4cc(-c5ccncc5)ccc4n3)cc2)CC1 [T3-CLK]
active: inhibition [11, 42] 74.2% | inhibition ([11]; Compound concentration 1.11 uM) 97.5% | inhibition ([19]; Compound concentration 1.0 uM) 55.7% | inhibition [23, 42] 92.1% | inhibition ([23]; Compound concentration 1.11 uM) 100%
inactive: inhibition [1] 10.9% | inhibition ([2]; Compound concentration 0.1 uM) 3.18% | inhibition ([2]; Compound concentration 1.0 uM) -1.48% | inhibition ([3]; Compound concentration 0.1 uM) -6.12% | inhibition ([3]; Compound concentration 1.0 uM) -4.71% | inhibition ([4]; Compound concentration 0.1 uM) 0.108% | inhibition ([4]; Compound concentration 1.0 uM) -0.329% | inhibition ([5]; Compound concentration 0.1 uM) 12.4% | inhibition ([5]; Compound concentration 1.0 uM) 10.9% | inhibition ([6]; Compound concentration 0.1 uM) 1.84% | inhibition ([6]; Compound concentration 1.0 uM) 0.79% | inhibition ([7]; Compound concentration 0.1 uM) 15.6% | inhibition ([7]; Compound concentration 1.0 uM) 11.3% | inhibition ([8]; Compound concentration 0.1 uM) 3.68% | inhibition ([8]; Compound concentration 1.0 uM) 2.12% | inhibition ([9]; Compound concentration 0.1 uM) 5.46% | inhibition ([9]; Compound concentration 1.0 uM) 4.24% | inhibition ([10]; Compound concentration 0.1 uM) -1.57% | inhibition ([10]; Compound concentration 1.0 uM) 3.62% | inhibition ([12]; Compound concentration 0.1 uM) -2% | inhibition ([12]; Compound concentration 1.0 uM) 0.493% | inhibition ([13]; Compound concentration 0.1 uM) 9.74% | inhibition ([13]; Compound concentration 1.0 uM) 18.4% | inhibition ([14]; Compound concentration 0.1 uM) -4.09% | inhibition ([14]; Compound concentration 1.0 uM) -6.26% | inhibition ([15]; Compound concentration 0.1 uM) -0.71% | inhibition ([15]; Compound concentration 1.0 uM) 2.69% | inhibition [16, 42] -8.38% | inhibition ([16]; Compound concentration 1.11 uM) -2.87% | inhibition ([17]; Compound concentration 0.1 uM) 5.63% | inhibition ([17]; Compound concentration 1.0 uM) 6.05% | inhibition ([18]; Compound concentration 0.1 uM) 0.672% | inhibition ([18]; Compound concentration 1.0 uM) 0.93% | inhibition ([19]; Compound concentration 0.1 uM) 10.1% | inhibition [20] -8.24% | inhibition ([21]; Compound concentration 0.1 uM) 13.2% | inhibition ([21]; Compound concentration 1.0 uM) 46.7% | inhibition ([22]; Compound concentration 0.1 uM) -3.75% | inhibition ([22]; Compound concentration 1.0 uM) -2.73% | inhibition ([24]; Compound concentration 0.1 uM) 4.26% | inhibition ([24]; Compound concentration 1.0 uM) 9.19% | inhibition ([25]; Compound concentration 0.1 uM) 2.21% | inhibition ([25]; Compound concentration 1.0 uM) 0.698% | inhibition ([26]; Compound concentration 0.1 uM) -1.05% | inhibition ([26]; Compound concentration 1.0 uM) -2.43% | inhibition ([27]; Compound concentration 0.1 uM) 3.58% | inhibition ([27]; Compound concentration 1.0 uM) 3.6%

CN1CCN(C(=O)C(C)(C)c2ccc(C(=O)Nc3cn4cc(-c5cc(C(C)(C)C)cc(C(C)(C)C)c5)ccc4n3)cc2)CC1 [T3-CLK-N]
2240 nM: Ki ([36]; read-out: pKi (converted))
1650 nM: Ki ([32]; read-out: Ki)
2250 nM: Ki ([39]; read-out: Ki)
inactive: inhibition [35] -6.1%
4020 nM: Ki [41]
1950 nM: Ki ([28]; read-out: pKi (converted))
1620 nM: Ki ([32]; read-out: pKi (converted))
2170 nM: Ki [31]
412 nM: Ki [38]
1910 nM: Ki ([39]; read-out: pKi (converted))
2660 nM: Ki [33]
2090 nM: Ki ([28]; read-out: Ki)
2560 nM: Ki [34]
1070 nM: Ki ([29]; read-out: Ki)
1050 nM: Ki ([29]; read-out: pKi (converted))
active: inhibition [37] 57% | inhibition [40] 68.3%
> 10000 nM (not active): IC50 [30]
2490 nM: Ki ([36]; read-out: Ki)
